Measured values from ChEMBL document CHEMBL1158693, “Antiinsectan decaturin and oxalicine analogues from Penicillium thiersii” (2005).

Assays:
Type in all cases: functional
Set-up in all cases: scale not given: the % may be the effect or the level left
Spodoptera frugiperda [1] = assay: Antiinsecticidal activity against Spodoptera frugiperda assessed as reduction in growth rate at 100 ppm relative to control
Spodoptera frugiperda [2] = assay: Antiinsecticidal activity against Spodoptera frugiperda assessed as reduction in growth rate at 80 ppm relative to control
Spodoptera frugiperda [3] = assay: Antiinsecticidal activity against Spodoptera frugiperda assessed as reduction in growth rate at 360 ppm relative to control

CC1=CC[C@@H]2[C@@]3(C)CCC(=O)C(C)(C)[C@@H]3CC[C@@]2(C)[C@]12Cc1c(cc(-c3cccnc3)oc1=O)O2 [DECATURIN D]
Activity (Spodoptera frugiperda [1]): 77%

C=C(C)[C@]1(O)CC[C@]2(C)[C@H](CC=C(C)[C@]23Oc2cc(-c4cccnc4)oc(=O)c2[C@@H]3O)[C@@]12CCC(=O)OC2 [OXALICINE B]
Activity (Spodoptera frugiperda [1]): 62%

CC1=CC[C@@H]2[C@]34CC[C@](O)(OC3)C(C)(C)[C@@H]4CC[C@@]2(C)[C@]12Cc1c(cc(-c3cccnc3)oc1=O)O2 [DECATURIN C]
Activity (Spodoptera frugiperda [2]): 28%

C=C(C)[C@@H]1CC[C@]2(C)[C@H](CC=C(C)[C@]23Oc2cc(-c4cccnc4)oc(=O)c2[C@@H]3O)[C@@]12CCC(=O)OC2 [OXALICINE A]
Activity (Spodoptera frugiperda [3]): 98%

CC1=CC[C@@H]2[C@]34CC[C@](O)(OC3)C(C)(C)[C@@H]4CC[C@@]2(C)[C@@]12Oc1cc(-c3cccnc3)oc(=O)c1[C@@H]2O [DECATURIN B]
Activity (Spodoptera frugiperda [1]): 89%
